Test system: NOMO1
Assay: cell viability relative to DMSO control; higher = less cytotoxic
Details: 48 h
Summary of the method: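 In 1536-well plates, 5 μl of leukemia cells were seeded per well: 500 cells/well for NOMO1 or SEM and 1000 cells/well for P12-Ichikawa. Each line had first been adapted for at least four passages in each medium. Library compounds in DMSO were pin-dosed at 11 threefold concentrations between 47 μM and 0.79 nM, and CellTiter-Glo One luminescence was read after 48 h at 37°C. Viability is a per-plate percentage relative to DMSO wells, with cell-free wells as background.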

[1] = HPLM + 10% dialyzed FBS, 0.000781 µM
[2] = HPLM + 10% dialyzed FBS, 0.00234 µM
[3] = HPLM + 10% dialyzed FBS, 0.00702 µM
[4] = HPLM + 10% dialyzed FBS, 0.0211 µM
[5] = HPLM + 10% dialyzed FBS, 0.0632 µM
[6] = HPLM + 10% dialyzed FBS, 0.19 µM
[7] = HPLM + 10% dialyzed FBS, 0.569 µM
[8] = HPLM + 10% dialyzed FBS, 1.71 µM
[9] = HPLM + 10% dialyzed FBS, 5.12 µM
[10] = HPLM + 10% dialyzed FBS, 15.4 µM
[11] = HPLM + 10% dialyzed FBS, 46.1 µM
[12] = RPMI 5 mM glucose + 10% FBS, 0.000781 µM
[13] = RPMI 5 mM glucose + 10% FBS, 0.00234 µM
[14] = RPMI 5 mM glucose + 10% FBS, 0.00702 µM
[15] = RPMI 5 mM glucose + 10% FBS, 0.0211 µM
[16] = RPMI 5 mM glucose + 10% FBS, 0.0632 µM
[17] = RPMI 5 mM glucose + 10% FBS, 0.19 µM
[18] = RPMI 5 mM glucose + 10% FBS, 0.569 µM
[19] = RPMI 5 mM glucose + 10% FBS, 1.71 µM
[20] = RPMI 5 mM glucose + 10% FBS, 5.12 µM
[21] = RPMI 5 mM glucose + 10% FBS, 15.4 µM
[22] = RPMI 5 mM glucose + 10% FBS, 46.1 µM
[23] = RPMI 5 mM glucose + 10% dialyzed FBS, 0.000781 µM
[24] = RPMI 5 mM glucose + 10% dialyzed FBS, 0.00234 µM
[25] = RPMI 5 mM glucose + 10% dialyzed FBS, 0.00702 µM
[26] = RPMI 5 mM glucose + 10% dialyzed FBS, 0.0211 µM
[27] = RPMI 5 mM glucose + 10% dialyzed FBS, 0.0632 µM
[28] = RPMI 5 mM glucose + 10% dialyzed FBS, 0.19 µM
[29] = RPMI 5 mM glucose + 10% dialyzed FBS, 0.569 µM
[30] = RPMI 5 mM glucose + 10% dialyzed FBS, 1.71 µM
[31] = RPMI 5 mM glucose + 10% dialyzed FBS, 5.12 µM
[32] = RPMI 5 mM glucose + 10% dialyzed FBS, 15.4 µM
[33] = RPMI 5 mM glucose + 10% dialyzed FBS, 46.1 µM

Compound	cell viability [1]	cell viability [2]	cell viability [3]	cell viability [4]	cell viability [5]	cell viability [6]	cell viability [7]	cell viability [8]	cell viability [9]	cell viability [10]	cell viability [11]	cell viability [12]	cell viability [13]	cell viability [14]	cell viability [15]	cell viability [16]	cell viability [17]	cell viability [18]	cell viability [19]	cell viability [20]	cell viability [21]	cell viability [22]	cell viability [23]	cell viability [24]	cell viability [25]	cell viability [26]	cell viability [27]	cell viability [28]	cell viability [29]	cell viability [30]	cell viability [31]	cell viability [32]	cell viability [33]
O=C1NC(=O)[C@@H](c2cn3c4c(cccc24)CCC3)[C@@H]1c1c[nH]c2ccccc12	95.9%	99.3%	98.2%	104%	107%	89.3%	89.8%	62.9%	29.7%	36.4%	20.6%	104%	116%	115%	99.5%	108%	104%	110%	68.6%	21.1%	20.8%	20.5%	93.1%	91.3%	96.2%	98.7%	106%	98.3%	114%	80%	22.4%	28.5%	29%
O=C(O)[C@H](Cc1c[nH]c2ccccc12)N1C(=O)c2ccccc2C1=O	96.1%	107%	103%	99.4%	110%	91.5%	90.8%	103%	119%	99.6%	117%	89.8%	83.3%	97%	89.1%	87.9%	80.8%	89.3%	97.1%	90.4%	92.3%	86.1%	92.5%	99.1%	104%	101%	98.7%	94.1%	100%	101%	103%	99.6%	83.3%
CCCCCCCCCCCC(CC1OC(=O)C1CCCCCC)OC(=O)C(CC(C)C)NC=O (stereo unspecified)	92.9%	105%	100%	109%	110%	114%	118%	114%	109%	98.8%	13.7%	93.5%	104%	95.3%	94.9%	114%	97.8%	102%	97.2%	100%	102%	31%	92.4%	102%	107%	91.7%	107%	102%	95.1%	105%	96.4%	89.2%	37.2%
CC[C@H]1OC(=O)[C@H](C)[C@@H](O[C@H]2C[C@@](C)(OC)[C@@H](O)[C@H](C)O2)[C@H](C)[C@@H](O[C@@H]2O[C@@H](C)C[C@H](N(C)C)[C@H]2O)[C@](C)(O)C[C@@H](C)C(=O)[C@H](C)[C@@H](O)[C@]1(C)O	86.3%	80.4%	97.4%	93%	105%	105%	108%	87%	80.9%	63.4%	56.7%	77.5%	81%	79.8%	94.9%	91.8%	92.1%	88.8%	84.9%	81%	88.8%	55%	77.8%	90.3%	91%	91.6%	102%	86.8%	93.3%	101%	90.3%	95.3%	51.8%
COc1cc2c(N3CCN(C(=O)Nc4ccc(OC(C)C)cc4)CC3)ncnc2cc1OCCCN1CCCCC1	68.3%	89.2%	85.9%	88.7%	83.3%	87.7%	112%	94.2%	95.2%	47.4%	41.2%	73.1%	71.7%	84.7%	74.5%	79.4%	83.8%	86.3%	77.5%	75.4%	40%	67.3%	79.3%	80.9%	75.4%	85.8%	80.9%	74%	89.7%	93.7%	85.5%	43.5%	55.3%
Cl.c1cnc2cc3c(cc2n1)C1CNCC3C1	107%	109%	110%	103%	129%	126%	135%	124%	124%	122%	92%	101%	105%	113%	107%	112%	110%	118%	104%	111%	110%	79.4%	99.3%	98.2%	105%	114%	107%	121%	116%	109%	103%	108%	62.8%
Cc1ccc(NC(=O)c2ccc(CN3CCN(C)CC3)cc2)cc1Nc1nccc(-c2cccnc2)n1	95.2%	105%	114%	116%	110%	116%	105%	122%	104%	95.4%	109%	90.6%	103%	92.3%	112%	120%	99.6%	114%	111%	104%	103%	103%	96.2%	100%	111%	101%	105%	103%	110%	94%	115%	104%	117%

— the supplement of paper PMC11451515
